Experimental findings from US6774132B1, “Spirooxindole derivatives that act as analgesics” (AstraZeneca AB, priority 1999, dated 2004) are described below.

`CCCN1CCCC2(C1)NC(=O)c1ccccc12.Cl` (stereo not shown): the melting point lay in the range of 110 to 112 °C.
